Experiment [1] concerns the target Serine/threonine-protein kinase ATR (Homo sapiens, UniProt Q13535). Put plainly: Inhibition of ATR (unknown origin).
The subject of experiment [2] is LoVo. Put plainly: Antiproliferative activity against human LoVo cells incubated for 72 hrs by CCK-8 assay. It counts as functional, cell-based.

Each structure is given as a SMILES string. Some results are limits rather than exact numbers.

Serine/threonine-protein kinase ATR, sequence (Q13535 whole entry): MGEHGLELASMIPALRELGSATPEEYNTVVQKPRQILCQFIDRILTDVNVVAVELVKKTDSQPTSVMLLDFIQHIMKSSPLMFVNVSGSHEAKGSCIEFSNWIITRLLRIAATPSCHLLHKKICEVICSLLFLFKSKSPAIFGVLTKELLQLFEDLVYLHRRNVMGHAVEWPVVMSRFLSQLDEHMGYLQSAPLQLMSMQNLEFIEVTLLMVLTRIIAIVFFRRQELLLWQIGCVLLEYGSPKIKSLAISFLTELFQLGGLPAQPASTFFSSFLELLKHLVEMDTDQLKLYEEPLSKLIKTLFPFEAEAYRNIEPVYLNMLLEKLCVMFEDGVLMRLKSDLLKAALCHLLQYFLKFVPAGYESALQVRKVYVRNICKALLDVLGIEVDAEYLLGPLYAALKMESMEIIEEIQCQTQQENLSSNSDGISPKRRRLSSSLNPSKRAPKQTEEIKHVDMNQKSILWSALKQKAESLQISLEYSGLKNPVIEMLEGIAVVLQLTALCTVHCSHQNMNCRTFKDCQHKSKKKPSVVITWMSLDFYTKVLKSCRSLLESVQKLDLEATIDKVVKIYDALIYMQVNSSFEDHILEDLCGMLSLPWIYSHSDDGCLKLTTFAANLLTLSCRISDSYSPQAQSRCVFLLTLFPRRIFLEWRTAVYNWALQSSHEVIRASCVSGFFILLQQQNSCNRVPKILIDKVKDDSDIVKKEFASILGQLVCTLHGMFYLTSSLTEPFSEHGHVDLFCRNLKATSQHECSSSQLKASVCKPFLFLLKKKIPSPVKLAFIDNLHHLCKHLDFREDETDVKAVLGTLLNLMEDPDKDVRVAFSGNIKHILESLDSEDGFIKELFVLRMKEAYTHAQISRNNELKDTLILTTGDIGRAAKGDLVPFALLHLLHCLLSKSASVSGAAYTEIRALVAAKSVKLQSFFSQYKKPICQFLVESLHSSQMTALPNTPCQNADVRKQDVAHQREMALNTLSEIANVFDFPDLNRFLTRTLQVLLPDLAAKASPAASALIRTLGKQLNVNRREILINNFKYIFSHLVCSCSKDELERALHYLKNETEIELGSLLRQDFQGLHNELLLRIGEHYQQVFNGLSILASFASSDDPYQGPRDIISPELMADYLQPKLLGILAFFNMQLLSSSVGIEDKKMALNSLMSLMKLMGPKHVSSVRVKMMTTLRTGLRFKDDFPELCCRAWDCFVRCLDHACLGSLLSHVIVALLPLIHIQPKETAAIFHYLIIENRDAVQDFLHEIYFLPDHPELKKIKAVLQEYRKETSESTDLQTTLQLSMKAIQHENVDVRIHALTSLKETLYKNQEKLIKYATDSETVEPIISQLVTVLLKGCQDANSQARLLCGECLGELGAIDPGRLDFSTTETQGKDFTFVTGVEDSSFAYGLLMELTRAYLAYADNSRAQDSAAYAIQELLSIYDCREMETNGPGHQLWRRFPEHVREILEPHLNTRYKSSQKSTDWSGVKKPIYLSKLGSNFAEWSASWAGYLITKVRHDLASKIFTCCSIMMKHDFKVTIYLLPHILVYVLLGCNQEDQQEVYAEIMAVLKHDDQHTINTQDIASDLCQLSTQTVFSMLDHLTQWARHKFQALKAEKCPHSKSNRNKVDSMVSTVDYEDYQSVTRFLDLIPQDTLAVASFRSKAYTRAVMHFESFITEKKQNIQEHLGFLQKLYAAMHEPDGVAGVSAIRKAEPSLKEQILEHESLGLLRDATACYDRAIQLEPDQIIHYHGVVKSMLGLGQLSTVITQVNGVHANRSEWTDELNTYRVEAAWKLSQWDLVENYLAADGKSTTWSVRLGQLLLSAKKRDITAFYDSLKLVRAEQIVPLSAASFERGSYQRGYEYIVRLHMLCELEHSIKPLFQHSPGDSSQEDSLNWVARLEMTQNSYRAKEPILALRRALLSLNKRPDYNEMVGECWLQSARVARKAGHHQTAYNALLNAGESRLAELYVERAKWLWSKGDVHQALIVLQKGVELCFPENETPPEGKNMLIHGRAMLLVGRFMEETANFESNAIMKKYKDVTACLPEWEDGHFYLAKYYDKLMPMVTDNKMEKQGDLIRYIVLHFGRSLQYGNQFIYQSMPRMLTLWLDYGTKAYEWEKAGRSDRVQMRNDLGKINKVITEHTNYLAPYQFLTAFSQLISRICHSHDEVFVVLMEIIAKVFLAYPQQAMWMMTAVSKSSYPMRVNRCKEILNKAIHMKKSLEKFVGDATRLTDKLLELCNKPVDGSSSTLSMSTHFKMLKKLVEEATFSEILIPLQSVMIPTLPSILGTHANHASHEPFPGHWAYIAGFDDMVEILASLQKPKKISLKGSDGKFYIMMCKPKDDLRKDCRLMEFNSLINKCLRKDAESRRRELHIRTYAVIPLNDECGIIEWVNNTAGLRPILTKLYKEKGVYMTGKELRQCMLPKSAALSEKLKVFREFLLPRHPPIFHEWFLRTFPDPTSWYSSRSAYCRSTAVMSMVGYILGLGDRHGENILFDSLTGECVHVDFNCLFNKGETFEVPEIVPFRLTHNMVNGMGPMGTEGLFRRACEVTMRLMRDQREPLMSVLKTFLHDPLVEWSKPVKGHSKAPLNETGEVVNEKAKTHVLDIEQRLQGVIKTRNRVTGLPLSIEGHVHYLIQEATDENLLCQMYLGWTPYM

As a reminder, the IC50 is the point on the concentration scale where inhibition reaches its midpoint. A lower IC50 goes with greater potency. Regarding `CC(=O)Nc1nc2ccccc2n1-c1nc(N2CCOC[C@H]2C)c2scc(S(C)(=O)=O)c2n1`, the half-maximal inhibitory concentration (IC50) worked out at 0.0132 µM in experiment [1] and 0.125 µM in experiment [2].
`CCc1nc2ccccc2n1-c1nc(N2CCOC[C@H]2C)c2scc(S(C)(=O)=O)c2n1`: the IC50 is 0.0038 µM in experiment [1] and 0.657 µM in experiment [2].
The like results for `C[C@@H]1COCCN1c1nc(-c2ccnc3[nH]ccc23)nc2c(S(C)(=O)=O)csc12` were, in that order, 0.0058 µM and 0.111 µM.
Take `Cc1nc2ccccc2n1-c1nc(N2CCOC[C@H]2C)c2scc(S(C)(=O)=O)c2n1`: the values for the IC50 in experiment [1] and in experiment [2] were 0.0035 µM and 0.635 µM, respectively.
In the case of `C[C@@H]1COCCN1c1nc(-c2cc(C(F)(F)F)cc3[nH]ccc23)nc2c(S(C)(=O)=O)csc12`, the IC50 was 0.0029 µM in experiment [1] and 0.527 µM in experiment [2].
For `CCCS(=O)(=O)c1csc2c(N3CCOC[C@H]3C)nc(-n3c(NC)nc4ccccc43)nc12` the same measures were 0.0168 µM and 0.626 µM.
Compound `CSc1nc2ccccc2n1-c1nc(N2CCOC[C@H]2C)c2scc(S(C)(=O)=O)c2n1` showed an IC50 in experiment [1] of 0.113 µM.
With `CC(O)c1csc2c(N3CCOC[C@H]3C)nc(-c3ccnc4[nH]ccc34)nc12` (stereo partly drawn), the IC50 amounted to 0.0192 µM in experiment [1] and 0.694 µM in experiment [2].
Compound `C=C(C)c1csc2c(N3CCOC[C@H]3C)nc(-c3ccnc4[nH]ccc34)nc12` displayed a concentration for half-maximal inhibition (IC50) in experiment [1] of 0.108 µM.
The same measure, in the same setting: next, `C[C@@H]1COCCN1c1nc(-c2cccc3c2CC(=O)N3)nc2c(S(C)(=O)=O)csc12`: 0.159 µM.
In the case of `C[C@@H]1COCCN1c1nc(-c2ccnc3[nH]ccc23)nc2c(S(C)(=N)=O)csc12` (stereo partly drawn), the half-maximal inhibitory concentration (IC50) in experiment [1] was 0.0054 µM; in experiment [2] it was 0.398 µM.
For `CNc1nc2ccccc2n1-c1nc(N2CCOC[C@H]2C)c2scc([S+](C)[O-])c2n1` (stereo partly drawn) the same measures were 0.0085 µM and 0.264 µM.
`CNc1nc2ccccc2n1-c1nc(N2CCOC[C@H]2C)c2scc(S(C)(=N)=O)c2n1` (stereo partly drawn): the IC50 in experiment [1] is 0.0055 µM; in experiment [2], 0.117 µM.
The like results for `C[C@@H]1COCCN1c1nc(-n2c(N)nc3ccc(F)cc32)nc2c(S(C)(=O)=O)csc12` were, in that order, 0.0037 µM and 0.36 µM.
With `C[C@@H]1COCCN1c1nc(-n2c(N(C)C)nc3ccccc32)nc2c(S(C)(=O)=O)csc12`, it took 0.233 µM to reach half-maximal inhibition in experiment [1] (IC50).
Take `CC(=O)c1csc2c(N3CCOC[C@H]3C)nc(-c3ccnc4[nH]ccc34)nc12`: the IC50 in experiment [1] is 0.0353 µM; in experiment [2], 0.931 µM.
With `C[C@@H]1COCCN1c1nc(-c2c(F)ncc3[nH]ccc23)nc2c(S(C)(=O)=O)csc12`, the IC50 in experiment [1] came to 0.0047 µM; in experiment [2], 0.151 µM.
The like results for `C[C@@H]1COCCN1c1nc(-c2ccnc3[nH]ccc23)nc2c(C(C)(C)O)csc12` were, in that order, 0.0079 µM and 0.221 µM.
In experiment [1], `C[C@@H]1COCCN1c1nc(-n2nnc3ccccc32)nc2c(S(C)(=O)=O)csc12` showed a concentration for half-maximal inhibition (IC50) of 0.047 µM.
Turning to `C[C@@H]1COCCN1c1nc(-c2cccc3c2CCN3)nc2c(S(C)(=O)=O)csc12`, the IC50 in experiment [1] was determined as 0.0592 µM; in experiment [2], 1.89 µM.
For `C[C@@H]1COCCN1c1nc(-c2cccc3[nH]ccc23)nc2c(S(C)(=O)=O)csc12` the same measures were 0.0031 µM and 0.266 µM.
The like results for `C[C@@H]1COCCN1c1nc(-c2cc(F)cc3[nH]ccc23)nc2c(S(C)(=O)=O)csc12` were, in that order, 0.0031 µM and 0.259 µM.
For `C[C@@H]1COCCN1c1nc(-n2c(N)nc3c(F)cccc32)nc2c(S(C)(=O)=O)csc12` the same measures were 0.002 µM and 0.381 µM.
Take `CCS(=O)(=O)c1csc2c(N3CCOC[C@H]3C)nc(-n3c(NC)nc4ccccc43)nc12`: the IC50 was 0.0045 µM in experiment [1] and 0.089 µM in experiment [2].
For `C[C@@H]1COCCN1c1nc(-n2c(C(F)F)nc3ccccc32)nc2c(S(C)(=O)=O)csc12`, the 50% inhibitory concentration (IC50) in experiment [1] was determined as 0.0028 µM; in experiment [2], 0.177 µM.
As to `C[C@@H]1COCCN1c1nc(-n2c(N)nc3cc(F)ccc32)nc2c(S(C)(=O)=O)csc12`, the 50% inhibitory concentration (IC50) turned out to be 0.0012 µM in experiment [1] and 0.073 µM in experiment [2].
For `CNc1nc2ccccc2n1-c1nc(N2CCOC[C@H]2C)c2scc(P(C)(C)=O)c2n1` the same measures were 0.0062 µM and 0.113 µM.
The like results for `C[C@@H]1COCCN1c1nc(-n2cnc3ccccc32)nc2c(S(C)(=O)=O)csc12` were, in that order, 0.0023 µM and 0.648 µM.
As to `C[C@@H]1COCCN1c1nc(-c2ccnc3[nH]ccc23)nc2ccsc12`, the concentration for half-maximal inhibition (IC50) in experiment [1] came to 0.0178 µM; in experiment [2] it was 3.34 µM.
As for `CCP(=O)(CC)c1csc2c(N3CCOC[C@H]3C)nc(-n3c(NC)nc4ccccc43)nc12`, the half-inhibitory concentration (IC50) came out at 0.0062 µM in experiment [1] and 0.371 µM in experiment [2].
For `C[C@@H]1COCCN1c1nc(-c2ccnc3[nH]ccc23)nc2c(C#N)csc12` the same measures were 0.0526 µM and 2.51 µM.
As to `CNc1nc2ccccc2n1-c1nc(N2CCOC[C@H]2C)c2scc(S(=O)(=O)C3CC3)c2n1`, the figures for the IC50 in experiment [1] and in experiment [2] were 0.0028 µM and 0.107 µM, respectively.
`CNc1nc2ccccc2n1-c1nc(N2CCOC[C@H]2C)c2scc(S(=O)(=O)C(C)C)c2n1`: the results for the concentration for half-maximal inhibition (IC50) in experiment [1] and in experiment [2] were 0.0057 µM and 0.224 µM, respectively.
Regarding `C[C@@H]1COCCN1c1nc(-c2c[nH]c3ccccc23)nc2c(S(C)(=O)=O)csc12`, the IC50 in experiment [1] was 0.005 µM; in experiment [2], 0.437 µM.
For `C[C@@H]1COCCN1c1nc(-c2cccc3[nH]ncc23)nc2c(S(C)(=O)=O)csc12` the same measures were 0.0096 µM and 0.391 µM.
For `C[C@@H]1COCCN1c1nc(-c2cc(Cl)cc3[nH]ccc23)nc2c(S(C)(=O)=O)csc12` the same measures were 0.0036 µM and 0.119 µM.
The like results for `C[C@@H]1COCCN1c1nc(-n2c(=O)[nH]c3ccccc32)nc2c(S(C)(=O)=O)csc12` were, in that order, 0.123 µM and over 10 µM.
In the case of `C[C@@H]1COCCN1c1nc(-c2ccnc3[nH]ccc23)nc2c(C(N)=O)csc12`, the half-inhibitory concentration (IC50) in experiment [1] was found to be 0.0315 µM; in experiment [2], 0.37 µM.
For `CNc1nc2ccccc2n1-c1nc(N2CCOC[C@H]2C)c2scc(SC)c2n1` the same measures were 0.0242 µM and 1.5 µM.

The values are drawn from ChEMBL document CHEMBL5321234, “Discovery of Thieno[3,2-d]pyrimidine derivatives as potent and selective inhibitors of ataxia telangiectasia mutated and Rad3 related (ATR) kinase” (Eur J Med Chem, 2023).
